Test results published in patent US8524302B2, “Natural flavour enhancers and methods for making same” (Pepsico, priority 2009, dated 2013).
“Also recorded” adds a separate entry of the source.

Assays:
sensory panel [1] = assay: Sensory (triangle) tests: kokumi intensity in chicken broth; format: in vivo; conditions: for Kokumi intensity (0-5): pH 6.5, scale 0-5 (blank = 2); for Sensory descriptors: pH 6.5; for kokumi effect (in words): Table 10
Experimental: (§1) Unless otherwise indicated, all sensory tests for the samples are determined using triangle tests (Wieser and Belitz, Z. Lebensm. Unters. Forsch., 1975, 159, 65-72) in three different sessions. The sensory panel is trained to evaluate aqueous solutions (2 mL each) of the following reference taste compounds dissolved in bottled water with a pH of 6.0: sucrose (25 mmol/L) for sweet taste; lactic acid (20 mmol/L) for sour taste; NaCl (30 mmol/L) for salty taste; caffeine (1 mmol/L) for bitter taste; and MSG (3 mmol/L) for umami taste, tannic acid (0.05%) for puckering astringency, and quercetin-O-β-D-glucopyranoside (0.01 mmol/L) for a velvety astringent, mouth-drying oral sensation. For the training of viscosity, a gelatin solution (0.5% in water) was used. […] Sensory analyses were performed in a sensory panel room at 19-22° C. in three different sessions using nose clamps.
(§2) For recording the taste profiles, samples are prepared as indicated in the examples below. Flavor profiles of samples are determined in a triangle test in three different sessions. Panelists refrain from eating or drinking for at least 1 hour prior to the session. At the start of the session and before each trial, the subjects rinsed with water and expectorated. The participants receive a set of two blanks and one taste sample. Liquids are swirled around in the mouth briefly and expectorated. […] Each sample with additive is compared to two reference samples without additives. Kokumi intensity is rated according to a scale from 0 to 5 (with 5 being the most intensive). Punch refers to an initial kokumi sensation experienced in the mouth within 0-3 seconds from the time when a food or liquid is put in the mouth, while long-lasting refers to kokumi felt after 10-60 seconds therefrom.
Sensory (triangle) tests are performed by dilution of 3 grams of chicken broth concentrate (Gourmet Bouillon Huhn; Maggi, Singen, Germany) with 100 mL water (Evian®). Additives are added as specified in table below. The pH-value of all samples is adjusted to 6.5 using formic acid (0.1 mol/L) or sodium hydroxide (0.1 mol/L). […] For each sample, kokumi intensity is rated and panelists were asked to describe sensory characteristics.

sensory panel [2] = assay: Sensory (triangle) tests of the compounds in water; format: in vivo; conditions: for Sensory descriptors / Intensity (0-5): additive 10 mmol/L; for Sensory descriptors: pH 6.5; for Intensity (0-5): pH 6.5, aroma and taste intensity, scale 0-5; for kokumi sensation (in words): without inducing or glutamate-containing composition
Experimental: as §1, §2
Sensory (triangle) tests are performed by dissolving the listed compounds in water (Evian®). Additives are added as specified in table below. The pH-value of all samples is adjusted to 6.5 using formic acid (0.1 mol/L) or sodium hydroxide (0.1 mol/L). For each sample, aroma and taste intensity is rated and panelists are asked to describe sensory characteristics.

Compound	Kokumi intensity (0-5) (sensory panel [1]; additive 10 mmol/L)	Sensory descriptors (sensory panel [2])	Intensity (0-5) (sensory panel [2])	other results
C/C=C/SC[C@H](N)C(=O)O [(E)-S-1-propenyl-L-cysteine]	2.5	fresh onion aroma	1	–
CSC[C@H](N)C(=O)O [S-methyl-L-cysteine]	2.4	flavourless	0	–
C/C=C/SC[C@H](NC(=O)CC[C@H](NCC(=O)[C@@H](O)[C@H](O)[C@H](O)CO)C(=O)O)C(=O)O [N-(1-Deoxy-D-fructos-1-yl)-γ-L-glutamyl-(E)-S-1-propenyl-L-cysteine]	–	–	–	Kokumi intensity (0-5) (sensory panel [1]; additive 4 mmol/L): 3.3
CCSC[C@H](N)C(=O)O [S-ethyl-L-cysteine]	2.7	–	1	–
CCCSC[C@H](N)C(=O)O [S-propyl-L-cysteine]	3.5	–	2	Kokumi intensity (0-5) (sensory panel [1]; additive 5 mmol/L): 3.5
C/C=C/[S+]([O-])C[C@H](N)C(=O)O (mixture of isomers) [(E)-S-1-propenyl-L-cysteine-(±)-SO]	2.2	onion aroma	0	–
CSC[C@H](NC(=O)CC[C@H](N)C(=O)O)C(=O)O [γ-L-glutamyl-S-methyl-L-cysteine]	3.5	flavourless	0	–
S-ethyl-L-cysteine-(±)-SO	2.1	–	1	–
C=CC[S+]([O-])C[C@H](NC(=O)CC[C@H](N)C(=O)O)C(=O)O (mixture of isomers) [γ-L-glutamyl-S-allyl-L-cysteine-(±)-SO]	2.5	burning	0.5	–
C[S+]([O-])C[C@H](NC(=O)CC[C@H](N)C(=O)O)C(=O)NCC(=O)O (mixture of isomers) [S-methyl-GSH-(±)-SO, S-methyl-γ-L-Glu-L-Cys-(±)-SO-Gly]	2	flavourless	0	Sensory descriptors (sensory panel [1]; additive 10 mmol/L): same intensity as blank
C=CC[S@+]([O-])C[C@H](N)C(=O)O (racemic) [S-allyl-L-cysteine-(±)-SO]	2.4	–	1	–
S-methyl-L-cysteine-(±)-SO	2.1	flavourless	0	–
[Cl-].[Na+] [NaCl, sodium chloride, reference compound]	–	–	–	kokumi effect (in words) (sensory panel [1]): no kokumi effect; Sensory descriptors (sensory panel [1]; additive 30 mmol/L): more salty than the negative control; also recorded: increased salty taste; Kokumi intensity (0-5) (sensory panel [1]; additive 30 mmol/L): 2; kokumi sensation (in words) (sensory panel [2]): no kokumi effect
N[C@@H](CCC(=O)N[C@@H](CS)C(=O)NCC(=O)O)C(=O)O [GSH, glutathione, reference compound]	3.5	–	–	–
C/C=C\SC[C@H](N)C(=O)O [(Z)-S-1-propenyl-L-cysteine]	3.1	–	1	Kokumi intensity (0-5) (sensory panel [1]; additive 5 mmol/L): 3.1
CSC[C@H](NC(=O)CC[C@H](N)C(=O)O)C(=O)NCC(=O)O [S-methyl-glutathione]	2.8	–	0	–
CCC[S+]([O-])C[C@H](NC(=O)CC[C@H](N)C(=O)O)C(=O)O (mixture of isomers) [γ-L-glutamyl-S-propyl-L-cysteine-(±)-SO]	2.1	flavourless	0	–

Compound	Kokumi intensity (0-5) (sensory panel [1]; additive 10 mmol/L)	Sensory descriptors (sensory panel [2])	Intensity (0-5) (sensory panel [2])	other results
CCCSC[C@H](NC(=O)CC[C@H](N)C(=O)O)C(=O)O [γ-L-glutamyl-S-propyl-L-cysteine]	2.8	tongue covering	0.5	–
C/C=C/[S+]([O-])C[C@H](NC(=O)CC[C@H](N)C(=O)O)C(=O)O (mixture of isomers) [γ-L-glutamyl-(E)-S-1-propenyl-L-cysteine-(±)-SO]	2.5	onion aroma	0.5	–
CCSC[C@H](NC(=O)CC[C@H](N)C(=O)O)C(=O)O [γ-L-glutamyl-S-ethyl-L-cysteine]	3.1	tongue covering	0.5	–
CCCSC[C@H](NC(=O)CC[C@H](N)C(=O)O)C(=O)NCC(=O)O [S-propyl-GSH, S-propyl-γ-L-Glu-L-Cys-Gly]	2.1	flavourless	0	–
CC[S+]([O-])C[C@H](NC(=O)CC[C@H](N)C(=O)O)C(=O)NCC(=O)O (mixture of isomers) [S-ethyl-GSH-(±)-SO, S-ethyl-γ-L-Glu-L-Cys-(±)-SO-Gly]	2	flavourless	0	Sensory descriptors (sensory panel [1]; additive 10 mmol/L): same intensity as blank
CC[S+]([O-])C[C@H](NC(=O)CC[C@H](N)C(=O)O)C(=O)O (mixture of isomers) [γ-L-glutamyl-S-ethyl-L-cysteine-(±)-SO]	2.2	flavourless	0	–
S-allyl-L-cysteine-(+)-SO [Alliin]	2.5	–	–	–
CCC[S+]([O-])C[C@H](NC(=O)CC[C@H](N)C(=O)O)C(=O)NCC(=O)O (mixture of isomers) [S-propyl-GSH-(±)-SO, S-propyl-γ-L-Glu-L-Cys-(±)-SO-Gly]	2	flavourless	0	Sensory descriptors (sensory panel [1]; additive 10 mmol/L): same intensity as blank
C=CC[S+]([O-])C[C@H](NC(=O)CC[C@H](N)C(=O)O)C(=O)NCC(=O)O (mixture of isomers) [S-allyl-GSH-(±)-SO, S-allyl-γ-L-Glu-L-Cys-(±)-SO-Gly]	2.8	flavourless	0	–
C=CCSC[C@H](NC(=O)CC[C@H](N)C(=O)O)C(=O)NCC(=O)O [S-allyl-GSH, S-allyl-γ-L-Glu-L-Cys-Gly]	3.2	–	0	–
C/C=C\[S+]([O-])C[C@H](N)C(=O)O (mixture of isomers) [(Z)-S-1-propenyl-L-cysteine-(±)-SO]	2.2	tongue covering, pungent	1	–
S-propyl-L-cysteine-(±)-SO	2.3	–	1	Kokumi intensity (0-5) (sensory panel [1]; additive 5 mmol/L): 2.3
C[S+]([O-])C[C@H](NC(=O)CC[C@H](N)C(=O)O)C(=O)O (mixture of isomers) [γ-L-glutamyl-S-methyl-L-cysteine-(±)-SO]	2.5	flavourless	0	–
N[C@@H](CCC(=O)O)C(=O)[O-].[Na+] [MSG, mono sodium glutamate, reference compound]	2	–	–	kokumi effect (in words) (sensory panel [1]): no kokumi effect; Sensory descriptors (sensory panel [1]; additive 10 mmol/L): higher umami intensity; also recorded: increased umami; kokumi sensation (in words) (sensory panel [2]): no kokumi effect
C=CCSC[C@H](NC(=O)CC[C@H](N)C(=O)O)C(=O)O [γ-L-glutamyl-S-allyl-L-cysteine]	3.7	–	1	–
CCSC[C@H](NC(=O)CC[C@H](N)C(=O)O)C(=O)NCC(=O)O [S-ethyl-GSH, S-ethyl-γ-L-Glu-L-Cys-Gly]	2.3	–	0	–
